Source: US7179819B2, “VLA-4 inhibitor compounds” (Daiichi Pharmaceutical Co., Ltd., priority 1999, dated 2007)

Legend:
[1] = Mouse bio-assay: serum concentration after oral dosing, determined by direct binding assay of diluted serum; details: female, Balb/c, serum, po, 10 mg/kg
Protocol: A compound was dissolved or suspended with an appropriate solvent at 1 mg/mL. Female Balb/c mice (7–9 weeks old) were given the compound orally. Blood samples were collected from the postcaval vein of the anesthetized mice after fifteen minutes. Serum was prepared and stored at −20° C. Serum concentration of the compound was determined from inhibitory activities of the diluted serum by a direct binding assay using VLA-4-expressing cells and VCAM-IgG fusion protein. Serum concentration determined by this method correlated well with the concentration determined by LC/MS/MS methodologies.

[2] = Pharmacokinetic evaluation in rat; type: in vivo; details: for AUC (total area under the plasma concentration versus time curve): LC/MS/MS; for clearance / MRT: plasma, 10 mg/kg; for clearance: read-out: CL (apparent plasma clearance); for MRT: read-out: MRT (mean residence time)
eosinophil infiltration [3] = assay: Murine model of Ascaris-induced bronchial inflammation: eosinophil infiltration into bronchoalveolar lavage fluid; type: in vivo; details: mouse, 30 mg/kg b.i.d. × 2 days, i.v.
Protocol: The VLA-4 inhibitors may be further characterized in in vivo assays. One such assay examines the inhibition of eosinophil infiltration into the bronchoalveolar lavage fluid in the mouse (murine) model. In this assay, the animals are treated with cyclophosphamide on day 0. On days 2 and 14, the animals are immunized intraperitoneally with Ascaris suum extract. Seven days later, the animals are treated with various doses of the VLA-4 inhibitor. Shortly after drug administration, the animals are challenged with Ascaris suum extract by instillation into the trachea. Bronchoalveolar lavage of the animal is performed by instilling saline into the lung, 48 hours later. Total cell and eosinophil counts in the lavage are determined.

[4] = Pharmacokinetic evaluation in mouse; type: in vivo; details: for AUC (total area under the plasma concentration versus time curve): LC/MS/MS; for clearance / MRT: plasma; for clearance: read-out: CL (apparent plasma clearance); for MRT: read-out: MRT (mean residence time)
eosinophil infiltration [5] = assay: Eosinophil accumulation model in the rat (Compound 48/80 injected into pleural cavities); type: in vivo, male Sprague Dawley rats; details: 50 mg/kg 2 days, s.c., b.i.d. at 0 and 8 hours
Protocol: The compounds of the present invention may also be further characterized in other in vivo assays, such as the eosioophil accumulation model tested in the rat. Fifty μg of Compound 48/80 was injected into the pleural cavities of male Sprague Dawley rats. After 24 hrs, each cavity was washed twice with Hank's Balanced Salt Solution containing 0.2% EDTA. Total cell and eosinophil counts were determined. Test compounds were given intraveneously, orally or subcutaneously, b.i.d. at 0 and 8 hours.

[6] = iv, 10 mg/kg (i.v.), line of AUC 0–6 hr
[7] = iv, 10 mg/kg (i.v.), line of AUC 0–∞
[8] = iv, 10 mg/kg, 10 mg/kg (i.v.), line of AUC 0–6 hr
[9] = iv, 10 mg/kg, 10 mg/kg (i.v.), line of AUC 0–∞

For `Cc1cc(CC(=O)N2C[C@@H](F)C[C@H]2COc2ccc(C(=O)O)cc2)ccc1NC(=O)Nc1ccccc1Cl` [Compound 79, 4-[1-[4-[N′-(2-chlorophenyl)ureido]-3-methylphenylacetyl]-(4S)-fluoro-(2S)-pyrrolidinyl]methoxybenzoic acid], the concentration at 15 min [1] was 618 ng/mL, the “AUC (total area under the plasma concentration versus time curve)” value ([2]; 10 mg/kg (i.v.), 0–6 hr) was 5259 (0–6 hr) ng · h/mL and the “AUC (total area under the plasma concentration versus time curve)” value ([2]; 10 mg/kg (i.v.), 0–∞) was 5389 (0–∞) ng · h/mL. The “AUC (total area under the plasma concentration versus time curve)” value ([2]; 10 mg/kg (p.o.), 0–6 hr) was 22119 (0–6 hr) ng · h/mL, the “AUC (total area under the plasma concentration versus time curve)” value ([2]; 10 mg/kg (p.o.), 0–∞) was 24867 (0–∞) ng · h/mL and the “CL (apparent plasma clearance)” value ([2]; 10 mg/kg (p.o.), line of AUC 0–6 hr) was 8.5 mL/min/kg. The “CL (apparent plasma clearance)” value ([2]; 10 mg/kg (p.o.), line of AUC 0–∞) was 6.7 mL/min/kg, the clearance [2, 6] was 31.7 mL/min/kg and the MRT [2, 6] was 24 min. For the same compound, the clearance [2, 7] was 30.9 mL/min/kg, the MRT [2, 7] was 36 min and the MRT ([2]; po, 10 mg/kg (p.o.), line of AUC 0–6 hr) was 30 min. For the same compound, the MRT ([2]; po, 10 mg/kg (p.o.), line of AUC 0–∞) was 42 min and the “% Inhibition of Eosinophil Infiltration” value (eosinophil infiltration [3]) was 35.9%.
With `Cc1cc(CC(=O)N2C[C@@H](F)C[C@H]2COc2ccc(C(=O)O)cc2)ccc1NC(=O)Nc1ccccc1Br` [Compound 80, 4-[1-[4-[N′-(2-bromophenyl)ureido]-3-methylphenylacetyl]-(4S)-fluoro-(2S)-pyrrolidinyl]methoxybenzoic acid] the concentration at 15 min [1] was 693 ng/mL, the “AUC (total area under the plasma concentration versus time curve)” value ([4]; 10 mg/kg (i.v.), 0–6 hr) was 5259 (0–6 hr) ng · h/mL and the “AUC (total area under the plasma concentration versus time curve)” value ([4]; 10 mg/kg (i.v.), 0–∞) was 5389 (0–∞) ng · h/mL. The “AUC (total area under the plasma concentration versus time curve)” value ([4]; 20 mg/kg (p.o.), 0–6 hr) was 2190 (0–6 hr) ng · h/mL, the “AUC (total area under the plasma concentration versus time curve)” value ([4]; 20 mg/kg (p.o.), 0–∞) was 3615 (0–∞) ng · h/mL and the “CL (apparent plasma clearance)” value ([4]; 20 mg/kg (p.o.), line of AUC 0–6 hr) was 152.24 mL/min/kg. For the same compound, the “CL (apparent plasma clearance)” value ([4]; 20 mg/kg (p.o.), line of AUC 0–∞) was 92.21 mL/min/kg, the clearance [4, 8] was 31.7 mL/min/kg and the MRT [4, 8] was 0.4 h. It also gave a clearance [4, 9] of 30.9 mL/min/kg, an MRT [4, 9] of 0.6 h and an MRT ([4]; po, 20 mg/kg, 20 mg/kg (p.o.), line of AUC 0–6 hr) of 2.3 h. For the same compound, the MRT ([4]; po, 20 mg/kg, 20 mg/kg (p.o.), line of AUC 0–∞) was 6.5 h and the “% Inhibition of Eosinophil Infiltration” value (eosinophil infiltration [5]) was 65.3%.
In the case of `O=C(Nc1ccc(CC(=O)N2C[C@@H](F)C[C@H]2COc2ccc(C(=O)O)cc2)cc1Cl)Nc1ccccc1Br` [Compound 92, 4-[1-[4-[N′-(2-bromophenyl)ureido]-3-chlorophenylacetyl]-(4S)-fluoro-(2S)-pyrrolidinyl]methoxybenzoic acid], the concentration at 15 min [1] was 2160 ng/mL and the “% Inhibition of Eosinophil Infiltration” value (eosinophil infiltration [5]) was 43.1%.
For `O=C(Nc1ccccc1Cl)Nc1ccc(CC(=O)N2C[C@@H](F)C[C@H]2COc2ccc(C(=O)O)cc2)cc1Br` [Compound 95, 4-[1-[3-bromo-4-[N′-(2-chlorophenyl)ureido]phenylacetyl]-(4S)-fluoro-(2S)-pyrrolindinyl]methoxybenzoic acid], the “% Inhibition of Eosinophil Infiltration” value (eosinophil infiltration [5]) was 40.9%.
